The source of these data is paper PMC12434071, “Platinum-group metal half-sandwich complexes of 1-(α-D-glucopyranosyl)-4-hetaryl-1,2,3-triazoles: synthesis, solution equilibrium studies, and investigation of their anticancer and antimicrobial activities” (Frontiers in Chemistry, 2025).

As usually defined, the IC50 is the midpoint of a concentration-inhibition curve.

The test system of series [1] is A2780 cells. In words: MTT reduction assay on A2780 cells. The class given is cell-based. The settings on record: maximal inhibition; 4 h treatment; maximum concentration 100 µM. How it is done: For MTT assays, 4 × 10^3 A2780 cells were plated into 96-well plates, and for SRB assays, 1.5 × 10^3 A2780 cells were plated into 96-well plates. Cells were treated with the compounds in the concentrations indicated for either 4 h for an MTT assay or for 48 h for an SRB assay. Data are represented as average ± SD, from four biological replicates, with the exception of the MTT dataset of Ir-2b and the SRB datasets of 2b, Ru/Ir-2b, and Ir-3a, which were derived from three biological replicates. Individual assays were performed in duplicate. Values were normalized for vehicle-treated cells, and the absorbance for vehicle-treated cells equals 1. Data are represented as fold change compared to vehicle-treated controls. Normality was assessed using the D'Agostino-Pearson test. Statistical significance was assessed using a two-way ANOVA test followed by Tukey's post hoc test. For better visibility, normality, transformations, statistical tests, and p values are presented in an MS Excel sheet at https://figshare.com/s/3a0aa60b66f3f746f41e. Color code: black-free ligand (2a,b or 3a), khaki-ruthenium complex (Ru-2a,b or Ru-3a), green-iridium complex (Ir-2a,b or Ir-3a).  FIGURE 5 The ruthenium, osmium, and iridium complexes of ligands 4a, 4b, and 5a decrease MTT reduction. For MTT assays, 4 × 10^3 A2780 cells, 3 × 10^3 ID8 cells, or 6 × 10^3 human primary fibroblasts were plated into 96-well plates. Cells were treated with the compounds in the concentrations indicated for 4 h. Data are represented as average ± SD, from four biological replicates on A2780, and from three biological replicates on ID8 and human primary fibroblasts. For the datasets of 5a and Os-5a on human primary fibroblasts, the data represent four biological replicates. Individual assays were performed in duplicate. Values were normalized for vehicle-treated cells, and the absorbance for vehicle-treated cells equals 1. Normality was assessed using the D'Agostino-Pearson test. Statistical significance was assessed using a two-way ANOVA test followed by Tukey's post hoc test. For better visibility, normality, transformations, statistical tests, and p values are presented in an MS Excel sheet at https://figshare.com/s/3a0aa60b66f3f746f41e. Color code: black-free ligand (4a,b or 5a), khaki-ruthenium complex (Ru-4a,b), green-iridium complex (Ir-4a,b), blue-osmium complex (Os-4a,b or Os-5a), and red-rhodium complex (Rh-4a,b). An MTT reduction assay measures the activity of mitochondrial complex I and can be used to detect toxicity ([[…] et al., 2016]). The assay was performed in a manner similar to that described by [[…] et al. (2023b)]. Briefly, cells were plated into 96-well plates the day before the assay. Cells were treated with the compounds for 4 h; then, MTT was added to a 0.5 mg/mL final concentration, and cells were incubated at 37°C in a cell incubator for 40-60 min, as a function of the cell line being assessed. The culture medium was removed, the reduced MTT dye was dissolved in dimethylsulfoxide, and plates were measured in a plate photometer (Thermo Scientific Multiscan GO spectrophotometer, Waltham, MA, United States) at 540 nm. Certain wells were designated to contain vehicle-treated cells on each plate. In calculations, the readings for these wells were considered to 1, and all readings were expressed relative to these values. Statistical analysis was performed using version 8.0.1 of GraphPad Prism. Values were tested for normal distribution using the D'Agostino-Pearson or Shapiro-Wilk normality tests. When necessary, values were log-normalized or normalized using the Box-Cox or two-step normalization method ([Box and Cox, 1964]), as indicated in the MS Excel file listing the values at https://figshare.com/s/3a0aa60b66f3f746f41e. The following statistical test, post hoc test, and the level of significance are indicated in the MS Excel file listing the values at https://figshare.com/s/3a0aa60b66f3f746f41e. […]

Series [2] relates to A2780 cells. Kind of series: SRB assay on A2780 cells. The series is classed as cell-based. To be noted: maximal inhibition; 48 h treatment; maximum concentration 100 µM. How it is done:
For MTT assays, 4 × 10^3 A2780 cells were plated into 96-well plates, and for SRB assays, 1.5 × 10^3 A2780 cells were plated into 96-well plates. Cells were treated with the compounds in the concentrations indicated for either 4 h for an MTT assay or for 48 h for an SRB assay. Data are represented as average ± SD, from four biological replicates, with the exception of the MTT dataset of Ir-2b and the SRB datasets of 2b, Ru/Ir-2b, and Ir-3a, which were derived from three biological replicates. Individual assays were performed in duplicate. Values were normalized for vehicle-treated cells, and the absorbance for vehicle-treated cells equals 1. Data are represented as fold change compared to vehicle-treated controls. Normality was assessed using the D’Agostino–Pearson test. Statistical significance was assessed using a two-way ANOVA test followed by Tukey’s post hoc test. For better visibility, normality, transformations, statistical tests, and p values are presented in an MS Excel sheet at https://figshare.com/s/3a0aa60b66f3f746f41e. Color code: black—free ligand (2a,b or 3a), khaki—ruthenium complex (Ru-2a,b or Ru-3a), green—iridium complex (Ir-2a,b or Ir-3a).  FIGURE 7 The ruthenium, osmium, and iridium complexes of ligands 4a, 4b, and 5a are cytostatic on ovarian cancer models with a good therapeutic index. For SRB assays, 1.5 × 10^3 A2780 cells, 1.5 × 10^3 ID8 cells, or 4 × 10^3 primary fibroblasts were plated into 96-well plates. Cells were treated with the compounds in the concentrations indicated for 48 h. Data are represented as average ± SD, from four biological replicates on A2780 and human primary fibroblasts, except in the case of Os complexes, where experiments were performed in three biological replicates. ID8 cells were assessed in three biological replicates. Individual assays were performed in duplicate. Values were normalized for vehicle-treated cells, and the absorbance for vehicle-treated cells equals 1. Normality was assessed using the D’Agostino–Pearson test. Statistical significance was assessed using a two-way ANOVA test followed by Tukey’s post hoc test. For better visibility, normality, transformations, statistical tests, and p values are presented in an MS Excel sheet at https://figshare.com/s/3a0aa60b66f3f746f41e. Color code: black—free ligand (4a,b or 5a), khaki—ruthenium complex (Ru-4a,b), blue—osmium complex (Os-4a,b or Os-5a), green—iridium complex (Ir-4a,b), and red—rhodium complex (Rh-4a,b). An SRB assay measures protein content of cells in correlation with the cell number in an assay well and can therefore be used to assess cell proliferation or long-term cytostasis ([Skehan et al., 1990]). Cells were seeded into 96-well plates the day before the treatment for the assay. Cells were treated with the various compounds for 48 h. Then, the medium was removed, and cells were fixed with 10% trichloroacetic acid. Fixed cells were washed in distilled water three times, followed by staining with SRB (0.4 m/V% dissolved in 1% acetic acid) for 10 min. Stained cells were washed in 1% acetic acid five times; the acetic acid was removed, and the cells were left to dry. Protein-bound SRB was released by adding 100 µL of 10 mM Tris base. Plates were measured in a plate photometer (Thermo Scientific Multiscan GO spectrophotometer, Waltham, MA, United States) at 540 nm. Certain wells were designated to contain vehicle-treated cells on each plate. […] Statistical analysis was performed using version 8.0.1 of GraphPad Prism. Values were tested for normal distribution using the D’Agostino–Pearson or Shapiro–Wilk normality tests. When necessary, values were log-normalized or normalized using the Box–Cox or two-step normalization method ([Box and Cox, 1964]), as indicated in the MS Excel file listing the values at https://figshare.com/s/3a0aa60b66f3f746f41e. […]

Series [3] can be described thus: pH-potentiometric titration, protonation constants (pKa) of the ligands. The settings on record: 0.20 M KCl, 25.0°C; N-heterocyclic ring of the ligand. The class given is physicochemical. As to the method: In order to obtain information on the acidbase character of the ligands and on the stoichiometry and stability of the complexes present in aqueous medium, potentiometric titrations were carried out in selected systems. Based on the results, both 3a and 3b, having good enough solubility in water, are capable of releasing one hydrogen ion from the fully protonated forms in the measurable pH range (see Figure 3, “pK”). The calculated pK a values appear in Table 4; these values belong to the N-heterocyclic ring of the ligands. […]. For comparison, the previously prepared β-anomeric pair of 3a, compound 3a-β ([Kacsir et al., 2021]) in Table 4, was also studied.
For solution studies, doubly deionized and ultra-filtered water was obtained from a Milli-Q RG (Millipore) water purification system. pH-potentiometric measurements were carried out at a constant ionic strength of 0.20 M KCl and at 25.0°C. Carbonate-free KOH solutions of known concentrations (ca. 0.2 M) were used as titrant. […]. A Mettler Toledo DL50 titrator equipped with a DG114-SC combined glass electrode was used for the pH-potentiometric measurements. […] The titrations were performed in the pH range of 2.0–11.0 in equilibrium-controlled mode, during which the pH equilibrium was assumed to be reached if a change in the measured potential was less than 0.1 mV within 90 s. […]

Series [4] is described as follows: pH-potentiometric titration, stability constants (logβ) of ML complexes. The class given is physicochemical. To be noted: [(η^5-Cp*)Rh]^2+; 0.20 M KCl, 25.0°C. The source says: […]. […] Comparing the two metal ion containing systems, the complexation with [(η^6-p-cym)Ru]^2+, starts at a more acidic pH, but hydrolytic processes occur already in the physiological pH range due to the higher affinity of the metal ion to hydrolysis. For the [(η^5-Cp*)Rh]^2+, these processes are shifted towards higher pH; […].
For solution studies, doubly deionized and ultra-filtered water was obtained from a Milli-Q RG (Millipore) water purification system. pH-potentiometric measurements were carried out at a constant ionic strength of 0.20 M KCl and at 25.0°C. Carbonate-free KOH solutions of known concentrations (ca. 0.2 M) were used as titrant. […]. A Mettler Toledo DL50 titrator equipped with a DG114-SC combined glass electrode was used for the pH-potentiometric measurements. […] The titrations were performed in the pH range of 2.0–11.0 in equilibrium-controlled mode, during which the pH equilibrium was assumed to be reached if a change in the measured potential was less than 0.1 mV within 90 s. […] The protonation constants of the ligands and the overall stability constants of the complexes, βp,q,r = [MpHqLr]/[M]^p[H]^q[L]^r (where “M” stands for [(η^5-Cp*)Rh(H2O)3]^2+ and “L” represents the completely deprotonated form of the ligand), were calculated with the aid of the SUPERQUAD ([Gans et al., 1985]) and PSEQUAD ([Zékány and Nagypál, 1985]) computer programs, respectively. […]

The test system of series [5] is cisplatin-resistant A2780 cells. To be noted: ref Kacsir et al., 2023a; cited from earlier work.

Take `CC(=O)OC[C@H]1O[C@H](n2cc(-c3ccccn3)nn2)[C@H](OC(C)=O)[C@@H](OC(C)=O)[C@@H]1OC(C)=O` [Complex 2a, 1-(2’,3’,4’,6’-Tetra-O-acetyl-α-D-glucopyranosyl)-4-(pyridin-2-yl)-1,2,3-triazole]: the “A2780 MTT max %” value with A2780 cells [1] was determined as 0%. For the same compound, in the series with A2780 cells [2], the “A2780 SRB max %” value came to 0%.

`CC(=O)OC[C@H]1O[C@H](n2cc(-c3ccc4ccccc4n3)nn2)[C@H](OC(C)=O)[C@@H](OC(C)=O)[C@@H]1OC(C)=O` [Complex 2b, 1-(2’,3’,4’,6’-Tetra-O-acetyl-α-D-glucopyranosyl)-4-(quinolin-2-yl)-1,2,3-triazole]: in the series with A2780 cells [1], the “A2780 MTT max %” value is 0%. Also, the “A2780 SRB max %” value in the series on A2780 cells [2] stood at 22.33%.

On to `OC[C@H]1O[C@H](n2cc(-c3ccc4ccccc4n3)nn2)[C@H](O)[C@@H](O)[C@@H]1O` [Complex 3b, 1-(α-D-Glucopyranosyl)-4-(quinolin-2-yl)-1,2,3-triazole], for which the pK a in series [3] is listed as 3.56 (1). Besides, the “logβ [ML]” value in series [4] is recorded as 5.55 (3).

`N.N.[Cl][Pt][Cl]` [cisplatin]: in series [5], the IC50 was 16.5 µM.
